{
  "source": "paper PMC7442744",
  "about": "(Journal of the American Chemical Society, 2020)",
  "biological_target": "human SQOR (sulfide quinone oxidoreductase) (Homo sapiens, UniProt Q9Y6N5)",
  "sequence (Q9Y6N5 42-450)": "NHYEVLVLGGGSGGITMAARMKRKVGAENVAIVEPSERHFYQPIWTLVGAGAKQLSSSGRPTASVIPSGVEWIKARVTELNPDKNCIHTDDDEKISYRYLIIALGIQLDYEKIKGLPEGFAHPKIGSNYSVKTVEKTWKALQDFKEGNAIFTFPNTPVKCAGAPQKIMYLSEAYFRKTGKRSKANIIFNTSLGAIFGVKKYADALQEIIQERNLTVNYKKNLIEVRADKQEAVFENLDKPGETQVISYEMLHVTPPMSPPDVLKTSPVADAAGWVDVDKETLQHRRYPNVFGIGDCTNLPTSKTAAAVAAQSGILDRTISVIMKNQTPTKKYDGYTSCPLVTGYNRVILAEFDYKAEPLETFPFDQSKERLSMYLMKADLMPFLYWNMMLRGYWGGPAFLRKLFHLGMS",
  "assay": "absorption spectroscopy, charge transfer complex formation",
  "type": "binding",
  "conditions": "covalent; 5 mM sulfite, 5 μM native SQOR, 20 °C, 1 min",
  "data": [
    {"molecule": "O=S(O)O", "note": "[sulfite]", "values": [
      {"measurement": "absorption spectroscopy, charge transfer complex formation", "value": "sulfite treatment, which forms a strong CT complex when added to native SQOR"}
    ]}
  ]
}
